From US20250122218A1, “MODULATORS OF CYSTIC FIBROSIS TRANSMEMBRANE CONDUCTANCE REGULATOR” (Vertex Pharmaceuticals Incorporated, priority 2022, published 2025)

These compounds were tested against T1, CFTR in F508del/MF-HBE cells (Homo sapiens, UniProt P13569, DEL508-508) (assay: Ussing chamber assay of CFTR-mediated short-circuit currents (identification of potentiator compounds)). Details: potentiator incubated 18-24 hours at 37° C. in combination with 10 μM corrector, in the presence of 20% human serum, CFTR-mediated ISC.
T1 construct: human bronchial epithelial (HBE) cells derived from CF subjects heterozygous for F508del and a minimal function CFTR mutation; endogenous in cells; host or cells: primary human bronchial epithelial cells from CF subjects (F508del/MF-HBE)
T1 sequence (P13569 with tags, fused parts or gaps DEL508-508): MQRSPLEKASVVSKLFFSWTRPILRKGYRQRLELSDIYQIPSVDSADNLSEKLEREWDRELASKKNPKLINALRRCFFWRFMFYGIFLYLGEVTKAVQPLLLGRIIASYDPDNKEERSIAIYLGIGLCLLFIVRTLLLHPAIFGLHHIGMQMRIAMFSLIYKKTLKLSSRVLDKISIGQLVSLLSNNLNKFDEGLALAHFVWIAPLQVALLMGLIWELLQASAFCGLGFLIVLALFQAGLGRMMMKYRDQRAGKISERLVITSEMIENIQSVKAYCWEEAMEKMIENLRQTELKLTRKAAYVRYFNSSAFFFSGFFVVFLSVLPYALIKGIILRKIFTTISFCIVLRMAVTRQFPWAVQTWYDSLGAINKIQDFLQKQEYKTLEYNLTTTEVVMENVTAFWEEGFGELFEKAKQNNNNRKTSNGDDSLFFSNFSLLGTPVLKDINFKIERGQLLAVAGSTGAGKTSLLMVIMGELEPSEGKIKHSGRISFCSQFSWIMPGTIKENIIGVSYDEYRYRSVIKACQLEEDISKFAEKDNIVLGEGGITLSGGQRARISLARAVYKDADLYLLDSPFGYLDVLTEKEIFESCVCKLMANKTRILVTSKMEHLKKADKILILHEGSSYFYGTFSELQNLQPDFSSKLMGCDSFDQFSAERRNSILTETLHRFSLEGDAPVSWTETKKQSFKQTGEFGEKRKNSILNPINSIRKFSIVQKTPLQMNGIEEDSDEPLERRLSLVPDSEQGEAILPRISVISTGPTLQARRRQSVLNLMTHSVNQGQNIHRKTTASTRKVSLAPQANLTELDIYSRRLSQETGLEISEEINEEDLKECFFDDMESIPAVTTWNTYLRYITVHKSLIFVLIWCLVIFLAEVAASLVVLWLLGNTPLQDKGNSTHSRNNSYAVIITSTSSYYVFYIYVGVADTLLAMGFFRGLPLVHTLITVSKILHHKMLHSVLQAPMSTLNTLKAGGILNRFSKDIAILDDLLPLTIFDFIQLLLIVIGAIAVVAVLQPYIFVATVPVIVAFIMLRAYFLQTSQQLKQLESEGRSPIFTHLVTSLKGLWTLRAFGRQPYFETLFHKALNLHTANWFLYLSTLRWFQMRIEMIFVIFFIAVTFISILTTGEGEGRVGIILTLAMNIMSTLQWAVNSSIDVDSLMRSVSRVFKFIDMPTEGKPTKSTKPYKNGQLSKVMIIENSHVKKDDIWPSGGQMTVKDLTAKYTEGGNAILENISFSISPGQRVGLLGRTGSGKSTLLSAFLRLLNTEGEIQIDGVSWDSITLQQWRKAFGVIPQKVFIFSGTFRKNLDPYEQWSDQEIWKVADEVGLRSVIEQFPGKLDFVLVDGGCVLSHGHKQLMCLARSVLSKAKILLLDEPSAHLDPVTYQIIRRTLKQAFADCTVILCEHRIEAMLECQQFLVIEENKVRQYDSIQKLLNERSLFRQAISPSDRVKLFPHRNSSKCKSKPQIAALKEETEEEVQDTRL
Assay type: cell-based
Summary of the method: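 F508del/MF-HBE cultures were preincubated 18-24 h at 37° C with potentiator plus 10 μM of a fixed corrector compound in 20% human serum; compounds were kept present during measurement. ISC was recorded under voltage clamp (0 mV, 37° C, amiloride apical) and taken as the 20 μM forskolin peak minus the current after inhibitor cocktail.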
Work on `CC(C)(C)c1cccc(CN2CCCCC[C@](O)(C(F)(F)F)C3=NN=C(O3)c3nc(c(C(F)(F)F)cc3N)C2=O)n1` [Compound 184, (6R)-17-amino-12-[(6-tert-butyl-2-pyridyl)methyl]-6-hydroxy-6,15-bis (trifluoromethyl)-19-oxa-3,4,12,18-tetrazatricyclo [12.3.1.12,5] nonadeca-1(18),2,4,14,1 6-pentaen-13-one] yielded an EC50 of under 500 nM.
With `Nc1cc(C(F)(F)F)c2nc1-c1nnc(o1)[C@@](O)(C(F)(F)F)CCCCCN(Cc1cccc(N3CCCCC3)n1)C2=O` [Compound 185, (6R)-17-amino-6-hydroxy-12-[[6-(1-piperidyl)-2-pyridyl]methyl]-6,15-bis (trifluoromethyl)-19-oxa-3,4,12,18-tetrazatricyclo [12.3.1.12,5] nonadeca-1(18),2,4,14,1 6-pentaen-13-one] the EC50 was under 500 nM.
`Nc1cc(C(F)(F)F)c2nc1-c1nnc(o1)[C@@](O)(C(F)(F)F)CCCCCN(Cc1cccc(OCC(F)(F)F)c1)C2=O` [Compound 186, (6R)-17-amino-6-hydroxy-12-[[3-(2,2,2-trifluoroethoxy)phenyl]methyl]-6,15-bis (trifluoromethyl)-19-oxa-3,4,12,18-tetrazatricyclo [12.3.1.12,5] nonadeca-1(18),2,4,14,1 6-pentaen-13-one] gave an EC50 of under 500 nM.
`Nc1cc(C(F)(F)F)c2nc1-c1nnc(o1)[C@@](O)(C(F)(F)F)CCCCCN(Cc1ccc(N3CCCCC3)nc1)C2=O` [Compound 187, (6R)-17-amino-6-hydroxy-12-[[6-(1-piperidyl)-3-pyridyl]methyl]-6,15-bis (trifluoromethyl)-19-oxa-3,4,12,18-tetrazatricyclo [12.3.1.12,5] nonadeca-1(18),2,4,14,1 6-pentaen-13-one] was tested, and the EC50 was under 500 nM.
Work on `Nc1cc(C(F)(F)F)c2nc1-c1nnc(o1)[C@@](O)(C(F)(F)F)CCCCCNC2=O` [Compound 188, (6R)-17-amino-6-hydroxy-6,15-bis(trifluoromethyl)-19-oxa-3,4,12,18-tetrazatricyclo[12.3.1.12,5]nonadeca-1(18),2,4,14,16-pentaen-13-one] yielded an EC50 of under 500 nM.
Compound `Nc1cc(C(F)(F)F)c2nc1-c1nnc(o1)[C@](O)(C(F)(F)F)CCCCCNC2=O` [Compound 189, (6S)-17-amino-6-hydroxy-6,15-bis(trifluoromethyl)-19-oxa-3,4,12,18-tetrazatricyclo[12.3.1.12,5]nonadeca-1(18),2,4,14,16-pentaen-13-one] has an EC50 of over 1000 nM.
Work on `CC(=O)N1CC2(CC(N3CCCCC[C@](O)(C(F)(F)F)C4=NN=C(O4)c4nc(c(C(F)(F)F)cc4N)C3=O)C2)C1` [Compound 190, (6R)-12-(2-acetyl-2-azaspiro[3.3]heptan-6-yl)-17-amino-6-hydroxy-6,15-bis(trifluoromethyl)-19-oxa-3,4,12,18-tetrazatricyclo[12.3.1.12,5]nonadeca-1(18),2,4,14,16-pentaen-13-one] yielded an EC50 of over 1000 nM.
`Nc1cc(C(F)(F)F)c2nc1-c1nnc(o1)[C@@](O)(C(F)(F)F)CCCCCN(C1CC3(C1)CN(C(=O)C1CC1)C3)C2=O` [Compound 191, (6R)-17-amino-12-[2-(cyclopropanecarbonyl)-2-azaspiro[3.3]heptan-6-yl]-6-hydroxy-6,15-bis(trifluoromethyl)-19-oxa-3,4,12,18-tetrazatricyclo[12.3.1.12,5]nonadeca-1(18),2,4,14,16-pentaen-13-one] gave an EC50 of over 1000 nM.
For `NC[C@H]1CC[C@H](N2CCCCC[C@](O)(C(F)(F)F)C3=NN=C(O3)c3nc(c(C(F)(F)F)cc3N)C2=O)CC1` [Compound 192, (6R)-17-amino-6-hydroxy-12-[trans-4-(aminomethyl)cyclohexyl]-6,15-bis(trifluoromethyl)-19-oxa-3,4,12,18-tetraazatricyclo[12.3.1.12,5]nonadeca-1(18),2,4,14,16-pentaen-13-one], the EC50 was over 1000 nM.
`N#C[C@H]1CC[C@H](N2CCCCC[C@](O)(C(F)(F)F)C3=NN=C(O3)c3nc(c(C(F)(F)F)cc3N)C2=O)CC1` [Compound 193, trans-4-[(6R)-17-amino-6-hydroxy-13-oxo-6,15-bis(trifluoromethyl)-19-oxa-3,4,12,18-tetraazatricyclo[12.3.1.12,5]nonadeca-1(18),2,4,14,16-pentaen-12-yl]cyclohexane-1-carbonitrile] showed an EC50 of under 500 nM.
For `Nc1cc(C(F)(F)F)c2nc1-c1nnc(o1)[C@@](O)(C(F)(F)F)CCCCCN(Cc1ccc(C34CC(C3)C4)cc1)C2=O` [Compound 195, (6R)-17-amino-12-[[4-(1-bicyclo[1.1.1]pentanyl)phenyl]methyl]-6-hydroxy-6,15-bis(trifluoromethyl)-19-oxa-3,4,12,18-tetrazatricyclo[12.3.1.12,5]nonadeca-1(18),2,4,14,16-pentaen-13-one], the EC50 was under 500 nM.
For `Nc1cc(C(F)(F)F)c2nc1-c1nnc(o1)[C@@](O)(C(F)(F)F)CCCCCN([C@H]1CC[C@@H](C(F)(F)F)CC1)C2=O` [Compound 208, (6R)-17-amino-6-hydroxy-12-[(1s,4s)-4-(trifluoromethyl)cyclohexyl]-6,15-bis(trifluoromethyl)-19-oxa-3,4,12,18-tetraazatricyclo [12.3.1.12,5] nonadeca-1(18),2,4,14,16-pentaen-13-one], the EC50 was under 500 nM.
In the case of `Nc1cc(C(F)(F)F)c2nc1-c1nnc(o1)[C@@](O)(C(F)(F)F)CCCCCN([C@H]1CC[C@H](C(F)(F)F)CC1)C2=O` [Compound 209, (6R)-17-amino-6-hydroxy-12-[(1r,4r)-4-(trifluoromethyl)cyclohexyl]-6,15-bis(trifluoromethyl)-19-oxa-3,4,12,18-tetraazatricyclo [12.3.1.12,5] nonadeca-1(18),2,4,14,16-pentaen-13-one], the EC50 is reported as under 500 nM.
`Nc1cc(C(F)(F)F)c2nc1-c1nnc(o1)[C@@](O)(C(F)(F)F)CCCCCN(C13CCC(CC1)CC3)C2=O` [Compound 210, (6R)-17-amino-12-(1-bicyclo[2.2.2]octanyl)-6-hydroxy-6,15-bis(trifluoromethyl)-19-oxa-3,4,12,18-tetrazatricyclo [12.3.1.12,5] nonadeca-1(18),2,4,14,16-pentaen-13-one] was tested, and the EC50 was under 500 nM.
For `COC12CCC(N3CCCCC[C@](O)(C(F)(F)F)c4nnc(o4)-c4nc(c(C(F)(F)F)cc4N)C3=O)(CC1)C2` [Compound 211, (6R)-17-amino-6-hydroxy-12-(4-methoxynorbornan-1-yl)-6,15-bis(trifluoromethyl)-19-oxa-3,4,12,18-tetrazatricyclo [12.3.1.12,5] nonadeca-1(18),2,4,14,16-pentaen-13-one], the EC50 was under 500 nM.
`Cc1cccc(CN2CCCCC[C@](O)(C(F)(F)F)C3=NN=C(O3)c3nc(c(C(F)(F)F)cc3N)C2=O)c1` [Compound 212, (6R)-17-amino-6-hydroxy-12-(m-tolylmethyl)-6,15-bis(trifluoromethyl)-19-oxa-3,4,12,18-tetrazatricyclo [12.3.1.12,5] nonadeca-1(18),2,4,14,16-pentaen-13-one] gave an EC50 of under 500 nM.
With `CC(C)(C)CCN1CCCCC[C@](O)(C(F)(F)F)C2=NN=C(O2)c2nc(c(C(F)(F)F)cc2N)C1=O` [Compound 213, (6R)-17-amino-12-(3,3-dimethylbutyl)-6-hydroxy-6,15-bis(trifluoromethyl)-19-oxa-3,4,12,18-tetrazatricyclo [12.3.1.12,5] nonadeca-1(18),2,4,14,16-pentaen-13-one] the EC50 was under 500 nM.
With `Nc1cc(C(F)(F)F)c2nc1-c1nnc(o1)[C@@](O)(C(F)(F)F)CCCCCN(Cc1ccc(C3(C(F)(F)F)CC3)cn1)C2=O` [Compound 214, (6R)-17-amino-6-hydroxy-6,15-bis(trifluoromethyl)-12-[[5-[1-(trifluoromethyl)cyclopropyl]-2-pyridyl]methyl]-19-oxa-3,4,12,18-tetrazatricyclo [12.3.1.12,5] nonadeca-1(18),2,4,14,16-pentaen-13-one] the EC50 was under 500 nM.
Compound `Nc1cc(C(F)(F)F)c2nc1-c1nnc(o1)[C@@](O)(C(F)(F)F)CCCCCN(Cc1cccc(Br)c1)C2=O` [Compound 216, (6R)-17-amino-12-[(3-bromophenyl)methyl]-6-hydroxy-6,15-bis(trifluoromethyl)-19-oxa-3,4,12,18-tetrazatricyclo [12.3.1.12,5] nonadeca-1(18),2,4,14,16-pentaen-13-one] has an EC50 of under 500 nM.
In the case of `Nc1cc(C(F)(F)F)c2nc1-c1nnc(o1)[C@@](O)(C(F)(F)F)CCCCCN(Cc1ccc(C3CC3)cc1)C2=O` [Compound 217, (6R)-17-amino-12-[(4-cyclopropylphenyl)methyl]-6-hydroxy-6,15-bis(trifluoromethyl)-19-oxa-3,4,12,18-tetrazatricyclo [12.3.1.12,5] nonadeca-1(18),2,4,14,16-pentaen-13-one], the EC50 is reported as under 500 nM.
With `CC(C)(C1CC1)N1CCCCC[C@](O)(C(F)(F)F)C2=NN=C(O2)c2nc(c(C(F)(F)F)cc2N)C1=O` [Compound 218, (6R)-17-amino-12-(1-cyclopropyl-1-methyl-ethyl)-6-hydroxy-6,15-bis(trifluoromethyl)-19-oxa-3,4,12,18-tetrazatricyclo [12.3.1.12,5] nonadeca-1(18),2,4,14,16-pentaen-13-one] the EC50 was under 500 nM.
For `CC1(N2CCCCC[C@](O)(C(F)(F)F)C3=NN=C(O3)c3nc(c(C(F)(F)F)cc3N)C2=O)CCCCC1` [Compound 219, (6R)-17-amino-6-hydroxy-12-(1-methylcyclohexyl)-6,15-bis(trifluoromethyl)-19-oxa-3,4,12,18-tetrazatricyclo [12.3.1.12,5] nonadeca-1(18),2,4,14,16-pentaen-13-one], the EC50 was under 500 nM.
`Nc1cc(C(F)(F)F)c2nc1-c1nnc(o1)[C@@](O)(C(F)(F)F)CCCCCN(Cc1cccc(C3(C(F)(F)F)CC3)c1)C2=O` [Compound 220, (6R)-17-amino-6-hydroxy-6,15-bis(trifluoromethyl)-12-[[3-[1-(trifluoromethyl)cyclopropyl]phenyl]methyl]-19-oxa-3,4,12,18-tetrazatricyclo [12.3.1.12,5] nonadeca-1(18),2,4,14,16-pentaen-13-one] gave an EC50 of under 500 nM.
